According to US11485751B2, “Apramycin derivatives” (WAYNE STATE UNIVERSITY, priority 2017, dated 2022):
≈ marks a conversion by molar mass, not a printed value.

What was measured:
Type in all cases: cell-based
[1] = system: A baum. AG227 APH(3′)-I armA; assay: Activity against G1405-methylated 16S-rRNA, clinical isolate AG227
Text: (§1) Minimal inhibitory concentrations (MIC) have been determined by broth microdilution assays (CLSI. Methods for Dilution Antimicrobial Susceptibility Tests for Bacteria That Grow Aerobically; Approved Standard—Tenth Edition. CLSI document M07-A10. Wayne, Pa.: Clinical and Laboratory Standards Institute; 2015.).

[2] = system: AG042 MRSA AAC(6′)-I ANT(4′)-I APH(2′); assay: Antibacterial activity, clinical isolate AG042; parameters: unit not given here
Text: as §1
(§2) Table 4 and 5 show the antibacterial activity of the compounds of the invention against bacterial reference strains (table 4) and against representative clinical isolates (table 5).

[3] = system: AG290, Enterobacter cloacae; assay: MIC reference strain AG290; conditions: reference strain
Text: as §1, §2
(§3) Legend to Tables: GEN, gentamicin; AMK, amikacin; PLZ, plazomicin; APR, apramycin; AG212, Escherichia coli ATCC25922; AG215, Klebsiella pneumonia; AG220, Pseudomonas aeruginosa ATCC27853; AG225, Acinetobacter baumannii pittii; AG290, Enterobacter cloacae; […], Mycobacterium smegmatis. MICs for AG192 have been determined in the presence of 0.5 μg/mL of ampicillin in the medium to mimic the synergistic effect of aminoglycoside and β-lactam antibiotics combination therapy in the treatment of Enterococcus infections in humans.

[4] = system: Engineered E. coli pH426 rmtC; assay: Activity against G1405-methylated 16S-rRNA, E. coli pH426 rmtC
Text: as §1

[5] = system: AG039 MRSA AAC(6′)-I ANT(4′)-I; assay: Antibacterial activity, clinical isolate AG039
Text: as §1, §2

AG032 P. aer. APH(3′)-II = assay: Antibacterial activity, clinical isolate AG032; parameters: unit not given here
Text: as §1, §2

AG038 MRSA = assay: Antibacterial activity, clinical isolate AG038; parameters: unit not given here
Text: as §1, §2

[6] = system: AG212, Escherichia coli ATCC25922; assay: MIC reference strain AG212; conditions: reference strain ATCC25922
Text: as §1, §2, §3

[7] = system: Engineered E. coli pH430 WT; assay: Activity, engineered E. coli pH430 WT; parameters: unit not given here; conditions: wild type
Text: as §1

[8] = system: Engineered E. coli pH425 rmtB; assay: Activity against G1405-methylated 16S-rRNA, E. coli pH425 rmtB
Text: as §1

[9] = system: AG220, Pseudomonas aeruginosa ATCC27853; assay: MIC reference strain AG220
Text: as §1, §2, §3

[10] = system: Enterob. AG302 AAC(3)-II AAC(6′)-I rmtC; assay: Activity against G1405-methylated 16S-rRNA, clinical isolate AG302
Text: as §1

[11] = system: K. pneum. AG269 AAC(3)-II AAC(6′)-I rmtB; assay: Activity against G1405-methylated 16S-rRNA, clinical isolate AG269
Text: as §1

AG031 P. aer. APH(3′)-II = assay: Antibacterial activity, clinical isolate AG031; parameters: unit not given here
Text: as §1, §2

[12] = system: AG215, Klebsiella pneumonia; assay: MIC reference strain AG215; conditions: reference strain
Text: as §1, §2, §3

[13] = system: AG225, Acinetobacter baumannii pittii; assay: MIC reference strain AG225; conditions: reference strain
Text: as §1, §2, §3

ATCC19977 M. abcessus = assay: MIC reference strain ATCC19977
Text: as §1, §2

[14] = system: E. coli AG153 AAC(3)-II APH(3′)-II rmtB; assay: Activity against G1405-methylated 16S-rRNA, clinical isolate AG153; parameters: unit not given here
Text: as §1

[15] = system: Engineered E. coli pH424 armA; assay: Activity against G1405-methylated 16S-rRNA, E. coli pH424 armA
Text: as §1

[16] = system: AG033 P. aer. APH(3′)-II AAC(6′)-I; assay: Antibacterial activity, clinical isolate AG033; parameters: unit not given here
Text: as §1, §2

[17] = system: Engineered E. coli pH427 rmtF; assay: Activity against G1405-methylated 16S-rRNA, E. coli pH427 rmtF
Text: as §1

AG001 E. coli WT = assay: Antibacterial activity, clinical isolate AG001; parameters: unit not given here
Text: as §1, §2

AG055 E. coli WT = assay: Antibacterial activity, clinical isolate AG055; parameters: unit not given here
Text: as §1, §2

AG003 E. coli AAC(3)-II = assay: Antibacterial activity, clinical isolate AG003; parameters: unit not given here
Text: as §1, §2

Compound | Activity A baum. AG227 APH(3′)-I armA [1] | Antibacterial activity AG042 MRSA AAC(6′)-I ANT(4′)-I APH(2′) [2] | Activity E. coli pH426 rmtC [4] | Antibacterial activity AG039 MRSA AAC(6′)-I ANT(4′)-I [5] | Antibacterial activity AG032 P. aer. APH(3′)-II (AG032 P. aer. APH(3′)-II) | Antibacterial activity AG038 MRSA (AG038 MRSA) | Activity E. coli pH430 WT [7] | Activity E. coli pH425 rmtB [8] | Activity Enterob. AG302 AAC(3)-II AAC(6′)-I rmtC [10] | Activity K. pneum. AG269 AAC(3)-II AAC(6′)-I rmtB [11] | Antibacterial activity AG031 P. aer. APH(3′)-II (AG031 P. aer. APH(3′)-II) | Activity E. coli AG153 AAC(3)-II APH(3′)-II rmtB [14] | Activity E. coli pH424 armA [15] | Antibacterial activity AG033 P. aer. APH(3′)-II AAC(6′)-I [16] | Activity E. coli pH427 rmtF [17] | further results
NCC[C@H](O)C(=O)N[C@@H]1C[C@H](N)[C@@H](O[C@H]2O[C@H](CN)[C@@H](O)[C@H](O)[C@H]2O)[C@H](O)[C@H]1O[C@H]1O[C@H](CO)[C@@H](O)[C@H](N)[C@H]1O [AMK, amikacin, reference compound] | >256 | 16-32 | >128 | 2-4 | 4 | 4 | 1 | >128 | >256 | >256 | 4 | >256 | >128 | 64 | >128 | MIC ([3]; Enterobacter cloacae, read-out: MIC AG290 E. cloacae): 1 µg/mL; MIC ([6]; Escherichia coli, read-out: MIC AG212 E. coli): 2 µg/mL; MIC ([9]; Pseudomonas aeruginosa, ATCC27853, reference strain ATCC27853, read-out: MIC AG220 P. aeruginosa): 2 µg/mL; MIC ([12]; Klebsiella pneumoniae, read-out: MIC AG215 K. pneumonia): 1 µg/mL; MIC ([13]; Acinetobacter baumannii, read-out: MIC AG225 A. baumannii): 2 µg/mL; MIC (ATCC19977 M. abcessus; read-out: MIC ATCC19977 M. abcessus): 2 µg/mL (≈ 3.42 µM)
gentamicin [reference compound] | >256 | 64 | >128 | 0.25-0.5 | 0.5 | 0.25-0.5 | 0.25 | >128 | >256 | >256 | 0.5 | >256 | >128 | 16 | >128 | MIC AG290 E. cloacae [3]: 0.25 µg/mL; Antibacterial activity AG001 E. coli WT (AG001 E. coli WT): 1; MIC AG212 E. coli [6]: 0.5 µg/mL; MIC AG220 P. aeruginosa ([9]; reference strain ATCC27853): 0.5 to 1 µg/mL; Antibacterial activity AG055 E. coli WT (AG055 E. coli WT): 0.5; MIC AG215 K. pneumonia [12]: 0.25 µg/mL; Antibacterial activity AG003 E. coli AAC(3)-II (AG003 E. coli AAC(3)-II): 32-64; MIC AG225 A. baumannii [13]: 0.5 to 1 µg/mL; MIC ATCC19977 M. abcessus (ATCC19977 M. abcessus; reference strain): 2 to 4 µg/mL
